# In US20110160311A1, “Sweetness Enhancers, Compositions Thereof, and Methods for Use” (The Coca-Cola Company, priority 2009, published 2011):
# Experiments:
# [1] = Sweetness detection threshold level in water, multi-sip and swallow taste method; format: in vivo, human; conditions: for Sweetness Detection Threshold Level: in water at room temperature
# From the text: As used herein, the terms “sweetness threshold,” “sweetness recognition threshold,” and “sweetness detection threshold” are understood to mean the level at which the lowest known concentration of a certain sweet compound that is perceivable by the human sense of taste and it can vary from person to person. For example, a typical sweetness threshold level for sucrose in water can be 0.5%.
# Further for example, the at least one sweetness enhancer to be used can be assayed in water at least 25% lower and at least 25% higher than the sucrose detection level of 0.5% in water to determine the sweetness threshold level.
# (§1) A first sip (approximately 2.2 mL) of a ca. 20 mL control composition was taken and swallowed. After waiting for a time ranging from 15 to 25 seconds, a second sip of control composition was taken and swallowed, and the sweetness and/or taste of the control composition was noted. After waiting for a time ranging from 15 to 25 seconds, these steps were repeated with a comparative composition. The sweetness and taste differences between the control and the comparative composition were noted. For each tested composition, this cycle was repeated once to confirm the initial findings. All samples were measured at average 23.0° C.±1° C. between samples for consistent comparison and to minimize any effects of temperature on the perceived taste or sweetness of the composition.
# (§2) To perform the taste test, three sweetener samples were paired with one additive and taste tested as described above. A three minute break was taken before tasting another three sweetener samples paired with a different additive. Up to 10 additives per day were used to minimize a fatigue factor. Before tasting, at least 1.5 hours elapsed after ingestion of any food, drink or nicotine. The tests were repeated on a different date to validate the initial findings.
# The sweetness detection threshold levels for 21 entities were measured by a single assessor in water at room temperature according to the multi-sip and swallow taste method described herein.
# [2] = Sweetness enhancement of glucose, fructose or sucrose at 6% SE in water by additive at its threshold level; format: in vivo, human; design: key: T: Slight thicker-like sweetness (not intensity factor).; No difference; N(S+): No difference but slightly more sweet (0.5-0.75%); +S: More sweetness intensity (~1.0% SE); ++S: Much more sweetness intensity (~2.0% SE); conditions: room temperature, additive at its Table 1 threshold level; for Sensory result versus FRU 55,000 ppm: fructose at 6% SE in water; for Sensory result versus GLU 99,000 ppm: glucose at 6% SE in water; for Sensory result versus SUC 60,000 ppm: sucrose at 6% SE in water
# Experimental: as §1, §2
# The twenty-one entities above were combined in a concentration at the sweetness detection threshold level listed in Table 1, with one of Glucose (GLU), Fructose (FRU), and Sucrose (SUG), each at a fixed SE (Sucrose Equivalents) level of 6%. The sweetness of the compositions was measured as described above at room temperature.
# [3] = as above; format: in vivo, human; conditions: from about 6% SE (sucrose control); REB C at 100 ppm, the other compound at 25 ppm
# [4] = By-products of 500 ppm REB A after two months of storage in phosphoric acid at RT; format: physicochemical; conditions: approximated concentration of by-product of 500 ppm REB A
# [5] = estimation sweetness/off-taste threshold in water at room temperature (RT)
Levels After 2 Month of Storage [4],Compound,Sweetness Detection Threshold Level ([1]; single assessor),"Sensory result versus FRU 55,000 ppm [2]","Sensory result versus GLU 99,000 ppm [2]","Sensory result versus SUC 60,000 ppm [2]",Sweetness of the composition after enhancement [3],"Sweetness Threshold Level [1, 5]","Sweetness Threshold Level ([1]; in water at RT, value is max. level for solubility)",Sweetness Detection Threshold Level ([1]; value is max. level for solubility)
,C=C1CC23CCC4C(C)(C(=O)OC5OC(CO)C(O)C(O)C5O)CCCC4(C)C2CCC1(OC1OC(CO)C(O)C(OC2OC(CO)C(O)C(O)C2O)C1OC1OC(CO)C(O)C(OC2OC(CO)C(O)C(O)C2O)C1O)C3 [13-[(2-O-(3-O-α-D-glucopyranosyl)-β-D-glucopyranosyl-3-O-β-D-glucopyranosyl-β-D-glucopyranosyl)oxy] kaur-16-en-18-oic acid β-D-glucopyranosyl ester],25 ppm,N(S+) (No difference but slightly more sweet (0.5-0.75%)),N(S+) (No difference but slightly more sweet (0.5-0.75%)),+S (More sweetness intensity (~1.0% SE)),about 7 % SE,,,
1 ppm,CC1=CC23CCC4C(C)(C(=O)O)CCCC4(C)C2CCC1(OC1OC(CO)C(O)C(OC2OC(CO)C(O)C(O)C2O)C1OC1OC(CO)C(O)C(O)C1O)C3 [13-[(2-O-β-D-glucopyranosyl-3-O-β-D-glucopyranosyl-β-D-glucopyranosyl)oxy] kaur-15-en-18-oic acid],35 ppm,N,N,N,,35 ppm,,
10 ppm,CC1(C(=O)OC2OC(CO)C(O)C(O)C2O)CCCC2(C)C3CCC4(OC5OC(CO)C(O)C(OC6OC(CO)C(O)C(O)C6O)C5OC5OC(CO)C(O)C(O)C5O)CC3(CCC12)CC4(C)O [13-[(2-O-β-D-glucopyranosyl-3-O-β-D-glucopyranosyl-β-D-glucopyranosyl)oxy]-16-hydroxy kauran-18-oic acid β-D-glucopyranosyl ester],700 ppm,N,N,N,,700 ppm,,
33 ppm,CC1(C(=O)O)CCCC2(C)C3CCC4(OC5OC(CO)C(O)C(OC6OC(CO)C(O)C(O)C6O)C5OC5OC(CO)C(O)C(O)C5O)CC3(CCC12)CC4(C)O [13-[(2-O-β-D-glucopyranosyl-3-O-β-D-glucopyranosyl-β-D-glucopyranosyl)oxy]-16-hydroxy kauran-18-oic acid],,N,N,N,,,500 ppm,500 ppm
1 ppm,C[C@@]12CCC[C@@](C)(C(=O)O[C@@H]3O[C@H](CO)[C@@H](O)[C@H](O)[C@H]3O)[C@H]1CC[C@]13C=C(CO)[C@](O[C@@H]4O[C@H](CO)[C@@H](O)[C@H](O[C@@H]5O[C@H](CO)[C@@H](O)[C@H](O)[C@H]5O)[C@H]4O[C@@H]4O[C@H](CO)[C@@H](O)[C@H](O)[C@H]4O)(CC[C@H]12)C3 [13-[(2-O-β-D-glucopyranosyl-3-O-β-D-glucopyranosyl]-β-D-glucopyranosyl)oxy]-17-hydroxy-kaur-15-en-18-oic acid β-D-glucopyranosyl ester],250 ppm,N,N,N(S+) (No difference but slightly more sweet (0.5-0.75%)),,250 ppm,,
,C=C1C[C@@]23CC[C@H]4[C@@](C)(CCC[C@@]4(C)C(=O)O[C@@H]4O[C@H](CO)[C@@H](O)[C@H](O)[C@H]4O)[C@@H]2CC[C@]1(O[C@@H]1O[C@H](CO)[C@@H](O)[C@H](O[C@@H]2O[C@H](CO)[C@@H](O)[C@H](O)[C@H]2O)[C@H]1O[C@@H]1O[C@H](CO)[C@@H](O)[C@H](O)[C@H]1O)C3 [Rebaudioside A],12.6 ppm,N,N,N,,,,
,C=C1C[C@@]23CC[C@H]4[C@@](C)(CCC[C@@]4(C)C(=O)O[C@@H]4O[C@H](CO)[C@@H](O)[C@H](O)[C@H]4O[C@@H]4O[C@H](CO)[C@@H](O)[C@H](O)[C@H]4O)[C@@H]2CC[C@]1(O[C@@H]1O[C@H](CO)[C@@H](O)[C@H](O[C@@H]2O[C@H](CO)[C@@H](O)[C@H](O)[C@H]2O)[C@H]1O[C@@H]1O[C@H](CO)[C@@H](O)[C@H](O)[C@H]1O)C3 [Rebaudioside D],25 ppm,N,N,N(S+) (No difference but slightly more sweet (0.5-0.75%)),,,,
,C=C1C[C@@]23CC[C@H]4[C@@](C)(CCC[C@@]4(C)C(=O)OC4OC(C(=O)O)C(O)C(O)C4O)[C@@H]2CC[C@]1(O)C3 (stereo partly shown) [Steviol glucuronide],85 ppm,N,N,N,,,,
,C=C1C[C@@]23CC[C@H]4[C@@](C)(CCC[C@@]4(C)C(=O)O)[C@@H]2CC[C@]1(O[C@@H]1O[C@H](CO)[C@@H](O)[C@H](O)[C@H]1O[C@@H]1O[C@H](CO)[C@@H](O)[C@H](O)[C@H]1O)C3 [Steviolbioside],50 ppm,N,N,N,,,,
,C=C1C[C@@]23CC[C@H]4[C@@](C)(CCC[C@@]4(C)C(=O)O[C@@H]4O[C@H](CO)[C@@H](O)[C@H](O)[C@H]4O)[C@@H]2CC[C@]1(O[C@@H]1O[C@H](CO)[C@@H](O)[C@H](O)[C@H]1O[C@@H]1O[C@H](CO)[C@@H](O)[C@H](O)[C@H]1O)C3 [Stevioside],25 ppm,N,N,N,,,,
17 ppm,Rebaudioside B,25 ppm,N,N,N,,25 ppm,,
,Rebaudioside C,100 ppm,N(S+) (No difference but slightly more sweet (0.5-0.75%)),N(S+) (No difference but slightly more sweet (0.5-0.75%)),+S (More sweetness intensity (~1.0% SE)),about 7 % SE,,,
,Rebaudioside F,25 ppm,N,N,N(S+) (No difference but slightly more sweet (0.5-0.75%)),,,,
